Where no end group is shown, it is not given here.
What was measured:
HSP47 (GAL4-BD-fusion) = assay: Yeast two-hybrid interaction with BD-fusion HSP47 (indicator of triple-helical conformation); assay type: cell-based, mouse
Excerpt: We expressed (Pro-Gly-Pro)-repeating peptides with a repeat number of 10, 13, or 23, as GAL4-AD-fusion proteins in yeast cells. The lengths of (Pro-Gly-Pro)10, (Pro-Gly-Pro)13, and (Pro-Gly-Pro)23 correspond to those of the N-terminal host, the guest plus the N-terminal host, and the guest plus the N- and C-hosts in the above peptide design (Fig. 1B), respectively. The peptides with fewer (Pro-Gly-Pro)-repeats have lower thermal stability of the triple helices ([19]). We set three different culture temperatures, 16, 30, and 37 °C, with the expectation of identifying the binding of BD-fusion HSP47 to these three peptides with GAL4-AD by the yeast two-hybrid system (Fig. 3). The mated yeast cells were selected by His and Ade auxotrophy in the presence of aureobasidin and X-α-Gal. When HSP47 interacts with the peptides, GAL4-BD and GAL4-AD are brought into proximity to activate the transcription of reporter genes (AUR1-C, ADE2, HIS3, and MEL1). The reporter gene expression allows yeast cells to survive on the plates and turn blue by degrading X-α-Gal. The interaction between HSP47 (bait) and peptides (prey) was detected by the growth of blue colonies on the selection plates. […] HSP47 bound only to (Pro-Gly-Pro)23 in yeast cells at 37 °C. At 30 °C, HSP47 bound to (Pro-Gly-Pro)13 as well as (Pro-Gly-Pro)23, but not to (Pro-Gly-Pro)10. At 16 °C, HSP47 bound to all three of the peptides.
A gene fragment encoding full-length mature mouse PEDF and HSP47 with EcoRI and SalI sites was obtained by PCR amplification, as described in the literature ([15], [45]). The DNA fragments and a pGBKT7 vector were ligated after digestion with EcoRI and SalI and transformed into E. coli HST08 competent cells (TaKaRa, Shiga, Japan). To prepare plasmids encoding PEDF R148A and D255N mutants, inverse PCR was performed with the above GAL4-BD-fused PEDF in a pGBKT7 vector as a template by Primestar MAX (TaKaRa). The PCR product was ligated with Gibson assembly reagents (New England Biolabs, Hertfordshire, UK), followed by transformation into HST08 competent cells. […]
(§1) Y2H interaction was detected by incubation of the generated diploids on minimal-medium quadruple-dropout (QDO; SD/-Leu-Trp-His-Ade) plates with 40 μg/ml X-α-Gal (FUJIFILM Wako Pure Chemical, Osaka, Japan) and 200 ng/ml aureobasidin A (TaKaRa) (QDOGA) plates and incubated for 3–5 days. Positivity for interaction was recorded upon the generation of yeast colonies that appeared blue.

[1] = test system: full-length mouse PEDF (GAL4-BD-fusion); assay: Yeast two-hybrid interaction of AD-fusion peptides with BD-fusion WT-PEDF; assay type: cell-based; settings: yeast diploids cultured at 25 °C for 5 days
Excerpt: To determine whether the peptides with the obtained sequences bind to PEDF in the same manner as the native PEDF-binding sequence, α1(I)930–938, we examined independent two-hybrid interactions of the three peptides and their mutants in which Arg at Yaa4 was substituted with Ala. […] We also examined the binding of the peptides to collagen-binding-null or heparin-binding-null PEDF mutants that we already reported ([33]). […] Meanwhile, the interaction was not observed for the peptide with the 1-2 sequence, probably because Cys at Xaa9 led to weaker interaction with PEDF than Leu ([15]). […] By contrast, the interactions were maintained using heparin-binding-null PEDF mutant (PEDF R148A) as a bait protein.
The bait and prey plasmids were transformed into S. cerevisiae Y2H gold (MATa, trp1-901, leu2-3, 112, ura3-52, his3-200, gal4Δ, gal80Δ, LYS2::GAL1UAS-Gal1TATA-His3, GAL2UAS-Gal2TATA-Ade2, URA3::MEL1UAS-Mel1TATA, AUR1-C MEL1; TaKaRa) and Y187 strains (MATα, ura3-52, his3-200, ade2-101, trp1-901, leu2-3, 112, gal4Δ, gal80Δ, met-, URA3::GAL1UAS-Gal1TATA-LacZ, MEL1; TaKaRa), in accordance with the manufacturer’s protocol. They were incubated on SD/-Trp and SD/-Leu plates, respectively, at 30 °C for 4–5 days for the selection of transformed clones.
Diploids were prepared by mixing them on yeast peptone dextrose adenine (YPDA) plates. After incubation at 30 °C overnight, they were spread on minimal-medium double-dropout (DDO; SD/-Leu-Trp) plates and incubated at 30 °C for 2–3 days for the selection of diploids.
as §1

| Substance | Two-hybrid interaction with HSP47 (HSP47 (GAL4-BD-fusion); cultured at 30 °C for 3 days) | Two-hybrid interaction with HSP47 (HSP47 (GAL4-BD-fusion); cultured at 37 °C for 3 days) | Two-hybrid interaction with BD-fusion WT-PEDF (blue colonies on QDOGA plates) [1] |
| --- | --- | --- | --- |
| (Pro-Gly-Pro)23 [GAL4-AD-fusion (Pro-Gly-Pro)23] | bound | bound | – |
| RGHRGFLGL [1-3, GAL4-AD-fusion peptide clone from the random library] | – | – | observed |
| (Pro-Gly-Pro)13 [GAL4-AD-fusion (Pro-Gly-Pro)13] | bound | – | – |
| (Pro-Gly-Pro)10 [GAL4-AD-fusion (Pro-Gly-Pro)10] | not | – | – |
| KGCRGLHGL [1-1, GAL4-AD-fusion peptide clone from the random library, flanked by (Pro-Gly-Pro)10 hosts] | – | – | observed |
| (Pro-Gly-Pro)10-Lys-Gly-His-Arg-Gly-Phe-Ser-Gly-Leu-(Pro-Gly-Pro)10 [α1(I)930–938] | – | – | observed |
| RGVRGFEGC [1-2, GAL4-AD-fusion peptide clone from the random library] | – | – | not observed |
